Laboratory results reported in ChEMBL document CHEMBL1124217, “2,4-Diamino-5-benzylpyrimidines and analogues as antibacterial agents. 9. Lipophilic trimethoprim analogues as antigonococcal agents” (J Med Chem, 1988).
In brackets after ≈: the same amount, converted by molar mass.

Columns and labels:
Rattus norvegicus [1] = experiment: Conc in brain of male rat 0.25 hr after administration of dose; type: functional, organism-based
Rattus norvegicus [2] = experiment: Conc in brain of male rat 0.75h after administration of dose; type: functional, organism-based
Rattus norvegicus [3] = experiment: Conc in serum of male rat 2 hr after administration of dose; type: functional, organism-based
Rattus norvegicus [4] = experiment: Conc in brain of male rat 1 hr after administration of dose; type: functional, organism-based
Rattus norvegicus [5] = experiment: Conc in liver of male rat 3h after administration of dose; type: functional, organism-based
Rattus norvegicus [6] = experiment: Conc in serum of male rat 0.75h after administration of dose; type: functional, organism-based
Rattus norvegicus [7] = experiment: Conc in ovary of female rat 1.5h after administration of dose; type: functional, organism-based; conditions: Female gonad
Rattus norvegicus [8] = experiment: Conc in serum of female rat 3h after administration of dose; type: functional, organism-based
Rattus norvegicus [9] = experiment: Conc in lung of male rat 10h after administration of dose; type: functional, organism-based
Rattus norvegicus [10] = experiment: Conc in stomach of male rat 0.75h after administration of dose; type: functional, organism-based
Rattus norvegicus [11] = experiment: Conc in stomach of male rat 2 hr after administration of dose; type: functional, organism-based
Rattus norvegicus [12] = experiment: Conc in testes of male rat 1.5h after administration of dose; type: functional, organism-based; conditions: Testis
Rattus norvegicus [13] = experiment: Conc in intestine of male rat 2 hr after administration of dose; type: functional, organism-based
Rattus norvegicus [14] = experiment: Conc in serum of female rat 10h after administration of dose; type: functional, organism-based
Rattus norvegicus [15] = experiment: Conc in testes of male rat 4 hr after administration of dose; type: functional, organism-based; conditions: Testis
Rattus norvegicus [16] = experiment: Conc in kidney of male rat after 0.75h administration of dose; type: functional, organism-based
Proteus vulgaris = experiment: Inhibition of growth of Proteus vulgaris (CN329) measured as MIC compound/MIC Trimethoprim; type: functional
Rattus norvegicus [17] = experiment: Conc in kidney of male rat 2 hr after administration of dose; type: functional, organism-based
Rattus norvegicus [18] = experiment: Conc in stomach of male rat 1.5h after administration of dose; type: functional, organism-based
Rattus norvegicus [19] = experiment: Conc in serum of male rat 24 hr after administration of dose; type: functional, organism-based
Rattus norvegicus [20] = experiment: Conc in muscle of male rat 3h after administration of dose; type: functional, organism-based; conditions: Muscle tissue
Rattus norvegicus [21] = experiment: Conc in testes of male rat 0.25 hr after administration of dose; type: functional, organism-based; conditions: Testis
Rattus norvegicus [22] = experiment: Conc in kidney of male rat 1 hr after administration of dose; type: functional, organism-based
Rattus norvegicus [23] = experiment: Conc in stomach of male rat 0.50 hr after administration of dose; type: functional, organism-based
Dihydrofolate reductase = molecular target: T1, Dihydrofolate reductase (Rattus norvegicus, UniProt Q920D2); experiment: Inhibition of Rat liver Dihydrofolate reductase(DHFR); conditions: read-out: I50
T1 sequence (Q920D2 whole entry): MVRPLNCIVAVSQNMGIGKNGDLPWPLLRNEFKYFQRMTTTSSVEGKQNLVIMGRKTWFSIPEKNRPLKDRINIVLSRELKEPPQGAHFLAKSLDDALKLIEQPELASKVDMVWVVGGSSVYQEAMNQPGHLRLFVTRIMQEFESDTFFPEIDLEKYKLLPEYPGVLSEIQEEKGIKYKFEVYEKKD

Rattus norvegicus [24] = experiment: Conc in liver of male rat 1.5h after administration of dose; type: functional, organism-based
Rattus norvegicus [25] = experiment: Conc in testes of male rat 10h after administration of dose; type: functional, organism-based; conditions: Testis
Rattus norvegicus [26] = experiment: Conc in lung of male rat after 0.25 hr administration of dose; type: functional, organism-based
Rattus norvegicus [27] = experiment: Conc in stomach of male rat 3h after administration of dose; type: functional, organism-based
Rattus norvegicus [28] = experiment: Conc in brain of male rat 0.50 hr after administration of dose; type: functional, organism-based
Rattus norvegicus [29] = experiment: Conc in ovary of female rat 2 hr after administration of dose; type: functional, organism-based; conditions: Female gonad
Rattus norvegicus [30] = experiment: Conc in liver of male rat 6 hr after administration of dose; type: functional, organism-based
Rattus norvegicus [31] = experiment: Conc in kidney of male rat 1.5h after administration of dose; type: functional, organism-based
Rattus norvegicus [32] = experiment: Conc in kidney of male rat 10h after administration of dose; type: functional, organism-based
Rattus norvegicus [33] = experiment: Conc in brain of male rat 10h after administration of dose; type: functional, organism-based
Rattus norvegicus [34] = experiment: Conc in lung of male rat 6 hr after administration of dose; type: functional, organism-based
Rattus norvegicus [35] = experiment: Conc in liver of male rat 0.50 hr after administration of dose; type: functional, organism-based
Rattus norvegicus [36] = experiment: Conc in ovary of female rat 4 hr after administration of dose; type: functional, organism-based; conditions: Female gonad
Rattus norvegicus [37] = experiment: Conc in kidney of male rat 4 hr after administration of dose; type: functional, organism-based
Rattus norvegicus [38] = experiment: Conc in muscle of male rat 2 hr after administration of dose; type: functional, organism-based; conditions: Muscle tissue
Rattus norvegicus [39] = experiment: Conc in ovary of female rat 3h after administration of dose; type: functional, organism-based; conditions: Female gonad
Neisseria gonorrhoeae = experiment: Inhibition of growth of Neisseria gonorrhoeae; type: functional
Rattus norvegicus [40] = experiment: Conc in lung of male rat 2 hr after administration of dose; type: functional, organism-based
Rattus norvegicus [41] = experiment: Conc in serum of female rat 6 hr after administration of dose; type: functional, organism-based
Rattus norvegicus [42] = experiment: Conc in muscle of male rat 1 hr after administration of dose; type: functional, organism-based; conditions: Muscle tissue
Rattus norvegicus [43] = experiment: Conc in lung of male rat 0.75h after administration of dose; type: functional, organism-based
Rattus norvegicus [44] = experiment: Conc in serum of male rat 1 hr after administration of dose; type: functional, organism-based
Klebsiella pneumoniae = experiment: Inhibition of growth of Klebsiella pneumoniae (CN3632) measured as MIC compound/MIC Trimethoprim; type: functional
Rattus norvegicus [45] = experiment: Conc in serum of female rat 0.75h after administration of dose; type: functional, organism-based
Rattus norvegicus [46] = experiment: Conc in muscle of male rat 0.50 hr after administration of dose; type: functional, organism-based; conditions: Muscle tissue
Klebsiella aerogenes = experiment: Inhibition of growth of Enterobacter aerogenes (2200/186) measured as MIC(compound/MIC Trimethoprim; type: functional
Rattus norvegicus [47] = experiment: Conc in serum of female rat 4 hr after administration of dose; type: functional, organism-based
Rattus norvegicus [48] = experiment: Conc in brain of male rat 2 hr after administration of dose; type: functional, organism-based
Rattus norvegicus [49] = experiment: Conc in serum of female rat 2 hr after administration of dose; type: functional, organism-based
Rattus norvegicus [50] = experiment: Conc in serum of female rat 24 hr after administration of dose; type: functional, organism-based
Rattus norvegicus [51] = experiment: Conc in intestine of male rat 6 hr after administration of dose; type: functional, organism-based
Rattus norvegicus [52] = experiment: Conc in serum of male rat 1.5h after administration of dose; type: functional, organism-based
Rattus norvegicus [53] = experiment: Conc in muscle of male rat 10h after administration of dose; type: functional, organism-based; conditions: Muscle tissue
Rattus norvegicus [54] = experiment: Conc in stomach of male rat 1 hr after administration of dose; type: functional, organism-based
Rattus norvegicus [55] = experiment: Conc in ovary of female rat 10h after administration of dose; type: functional, organism-based; conditions: Female gonad
Rattus norvegicus [56] = experiment: Conc in stomach of male rat 10h after administration of dose; type: functional, organism-based
Rattus norvegicus [57] = experiment: Conc in intestine of male rat 10h after administration of dose; type: functional, organism-based
Rattus norvegicus [58] = experiment: Conc in intestine of male rat 0.50 hr after administration of dose; type: functional, organism-based
Rattus norvegicus [59] = experiment: Conc in muscle of male rat 24 hr after administration of dose; type: functional, organism-based; conditions: Muscle tissue
Rattus norvegicus [60] = experiment: Conc in intestine of male rat 0.25 hr after administration of dose; type: functional, organism-based
Escherichia coli = experiment: Inhibition of growth of Escherichia coli (CN314) measured as MIC compound/MIC Trimethoprim; type: functional
Rattus norvegicus [61] = experiment: Conc in ovary of female rat 6 hr after administration of dose; type: functional, organism-based; conditions: Female gonad
Rattus norvegicus [62] = experiment: Conc in serum of male rat 3h after administration of dose; type: functional, organism-based
Staphylococcus aureus = experiment: Inhibition of growth of Staphylococcus aureus (CN491) measured as MIC compound/MIC Trimethoprim; type: functional

## CC(C)c1cc(Cc2cnc(N)nc2N)cc(C(C)C)c1O
Rattus norvegicus [1]
  Concentration: 0.13 µg/g
Rattus norvegicus [2]
  Concentration: 1.01 µg/g
Rattus norvegicus [3]
  Concentration: 0.49 µg/g
Rattus norvegicus [4]
  Concentration: 0.91 µg/g
Rattus norvegicus [5]
  Concentration: 9.56 µg/g
Rattus norvegicus [6]
  Concentration: 1.13 µg/g
Rattus norvegicus [7]
  Concentration: 4.5 µg/g
Rattus norvegicus [8]
  Concentration: 0.61 µg/g
Rattus norvegicus [9]
  Concentration: 0.4 µg/g
Rattus norvegicus [10]
  Concentration: 319 µg/g
Rattus norvegicus [11]
  Concentration: 46.1 µg/g
Rattus norvegicus [12]
  Concentration: 1.52 µg/g
Rattus norvegicus [13]
  Concentration: 11.6 µg/g
Rattus norvegicus [14]
  Concentration: 0.16 µg/g
Rattus norvegicus [15]
  Concentration: 1.01 µg/g
Rattus norvegicus [16]
  Concentration: 10.3 µg/g
Proteus vulgaris
  MIC ratio: 300
Rattus norvegicus [17]
  Concentration: 4.08 µg/g
Rattus norvegicus [18]
  Concentration: 97.1 µg/g
Rattus norvegicus [19]
  Concentration: 0.08 µg/g
Rattus norvegicus [20]
  Concentration: 1.38 µg/g
Rattus norvegicus [21]
  Concentration: 1.34 µg/g
Rattus norvegicus [22]
  Concentration: 7.78 µg/g
Rattus norvegicus [23]
  Concentration: 304 µg/g
Dihydrofolate reductase
  IC50: 7.2 µM
Rattus norvegicus [24]
  Concentration: 13.5 µg/g
Rattus norvegicus [25]
  Concentration: 0.66 µg/g
Rattus norvegicus [26]
  Concentration: 2.52 µg/g
Rattus norvegicus [27]
  Concentration: 8.92 µg/g
Rattus norvegicus [28]
  Concentration: 0.58 µg/g
Rattus norvegicus [29]
  Concentration: 1.93 µg/g
Rattus norvegicus [30]
  Concentration: 5.14 µg/g
Rattus norvegicus [31]
  Concentration: 6.74 µg/g
Rattus norvegicus [32]
  Concentration: 1.13 µg/g
Rattus norvegicus [33]
  Concentration: 0.04 µg/g
Rattus norvegicus [34]
  Concentration: 0.52 µg/g
Rattus norvegicus [35]
  Concentration: 29.9 µg/g
Rattus norvegicus [36]
  Concentration: 1.55 µg/g
Rattus norvegicus [37]
  Concentration: 2.07 µg/g
Rattus norvegicus [38]
  Concentration: 1.4 µg/g
Rattus norvegicus [39]
  Concentration: 2.06 µg/g
Neisseria gonorrhoeae
  MIC: 9.2 µM (≈ 2.76 µg/mL)
Rattus norvegicus [40]
  Concentration: 4.98 µg/g
Rattus norvegicus [41]
  Concentration: 0.34 µg/g
Rattus norvegicus [42]
  Concentration: 2.36 µg/g
Rattus norvegicus [43]
  Concentration: 11.3 µg/g
Rattus norvegicus [44]
  Concentration: 0.92 µg/g
Klebsiella pneumoniae
  MIC ratio: 300
Rattus norvegicus [45]
  Concentration: 1.44 µg/g
Rattus norvegicus [46]
  Concentration: 1.45 µg/g
Klebsiella aerogenes
  MIC ratio: 100
Rattus norvegicus [47]
  Concentration: 0.53 µg/g
Rattus norvegicus [48]
  Concentration: 0.43 µg/g
Rattus norvegicus [49]
  Concentration: 0.68 µg/g
Rattus norvegicus [50]
  Concentration: 0.14 µg/g
Rattus norvegicus [51]
  Concentration: 4.13 µg/g
Rattus norvegicus [52]
  Concentration: 0.8 µg/g
Rattus norvegicus [53]
  Concentration: 0.13 µg/g
Rattus norvegicus [54]
  Concentration: 47 µg/g
Rattus norvegicus [55]
  Concentration: 0.23 µg/g
Rattus norvegicus [56]
  Concentration: 2 µg/g
Rattus norvegicus [57]
  Concentration: 2.29 µg/g
Rattus norvegicus [58]
  Concentration: 114 µg/g
Rattus norvegicus [59]
  Concentration: 0.04 µg/g
Rattus norvegicus [60]
  Concentration: 158 µg/g
Escherichia coli
  MIC ratio: 300
Rattus norvegicus [61]
  Concentration: 0.71 µg/g
Rattus norvegicus [62]
  Concentration: 0.47 µg/g
Staphylococcus aureus
  MIC ratio: 10
